Results: patent publication US20220387433A1, “TYPE V PHOSPHODIESTERASE INHIBITOR COMPOSITIONS, METHODS OF MAKING THEM AND METHODS OF USING THEM IN PREVENTING OR TREATING ELEVATED PULMONARY VASCULAR PRESSURE OR PULMONARY HEMORRHAGES” (American Regent, Inc., priority 2019, published 2022)

Test system: horses
Test: Target Animal Safety (TAS) study / toxicity of formulations in horses
Assay type: in vivo
Settings: in vivo
Description: The drug product vehicle contains about 35-45 wt % alcohol, 46 wt % propylene glycol and 10 wt % WFI. […] Test doses (in horses) with the vehicle confirmed that the dose toxicity was due to the vehicle. More specifically, propylene glycol was believed to be the cause of toxicity.

For `CNC[C@H](O)[C@@H](O)[C@H](O)[C@H](O)CO` [meglumine, 1-Deoxy-1-methylaminosorbitol], the Toxicity to horses was “non-toxic”.
